One data set concerns the target T1, MMP-2 (Homo sapiens, UniProt P08253).
T1 sequence (P08253 110-660): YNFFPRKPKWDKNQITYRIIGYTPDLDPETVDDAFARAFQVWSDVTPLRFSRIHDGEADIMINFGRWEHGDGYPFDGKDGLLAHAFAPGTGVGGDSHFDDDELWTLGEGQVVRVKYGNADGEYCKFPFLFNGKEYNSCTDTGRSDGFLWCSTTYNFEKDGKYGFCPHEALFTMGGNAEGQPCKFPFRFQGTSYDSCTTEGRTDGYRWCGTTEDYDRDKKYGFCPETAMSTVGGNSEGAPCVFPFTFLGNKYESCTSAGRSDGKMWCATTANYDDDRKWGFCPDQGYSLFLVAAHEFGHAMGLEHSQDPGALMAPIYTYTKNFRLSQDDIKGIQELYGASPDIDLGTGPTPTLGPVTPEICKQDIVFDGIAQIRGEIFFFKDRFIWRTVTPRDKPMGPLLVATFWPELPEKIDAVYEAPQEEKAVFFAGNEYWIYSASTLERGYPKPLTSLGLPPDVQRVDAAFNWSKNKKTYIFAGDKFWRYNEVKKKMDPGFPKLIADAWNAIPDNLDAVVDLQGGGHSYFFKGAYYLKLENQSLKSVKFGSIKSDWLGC
Put plainly: In vitro degradation of SLanc with MMP-2 (MALDI-MS). The class given is biochemical. The settings on record: in vitro incubation with MMP-2, MALDI-MS. The text has this: Chemical moieties introduced into the peptide sequence can tailor the host response to materials. In the design of SLanc, an MMP-2 cleavage sequence was introduced into the central peptide backbone. This sequence can be cleaved specifically with MMP-2, which is secreted by a host of infiltrating cells ranging from macrophages to fibroblasts. […] Additional functionality was afforded to SLanc to enhance angiogenesis by addition of QK derived from VEGF-165.

For data set [1], the system named is human mesenchymal stem cells (hMSCs). The experiment in a line: hMSC adhesion on hydrogel scaffolds. Format: cell-based. As to conditions: 2000 hMSC per gel, 5 days at 37° C., nuclei counted. How it is done: SLanc, SLac, SL, and RTT hydrogels (50 μL) were cast in 16-well chamber slides (n=6). hMSC (2000 on each gel) were seeded, and compared to TCP surfaces. Cells were incubated for 5 days at 37° C. Actin filaments were stained with Alexafluor Phalloidin 488 (Life Technologies) and DAPI (Life Technologies). Cell morphology was noted and nuclei counted to quantify proliferation.

The next data set deals with THP-1 cells. The experiment in a line: Immunogenicity with THP-1 cells atop scaffolds (ELISA). Format: cell-based. As to conditions: ELISA at 24 hr. How it is done: 200 μL gels were cast in 24 well plates. Rat tail tendon (RTT), Puramatrix™ (Pura) and Matrigel™ were used as gel controls, and TCP with macrophages differentiated to M1 (20 ng/mL IFN-γ+LPS) and M2 (20 ng/mL IL-4) phenotype were used as cell controls. THP-1 cells in suspension were suspended in media and incubated at a concentration of 1M cells/well atop scaffolds. Media aliquots were assayed for inflammatory (IL-1β, TNF-α), and anti-inflammatory (IL-10) at 24 hr using ELISA (Biolegend, Calif.).

In a further data set the test system is HUVEC. The experiment in a line: Scratch wound healing assay. The class given is cell-based, human. The settings on record: 1 μM soluble peptide, low FBS (0.5%) media, 18 hr. How it is done:
HUVEC were seeded in a 12-well plate (25,000 per well) and grown to confluence (n=6). A scratch wound was made in each of the wells with a 1 mL pipet tip. Cell surfaces were then washed with HBSS. Cell culture media with 0.5% FBS and 1 μM peptides (SLanc, SLac, PBS) alone was added on top of cells, n=6. Surfaces were imaged immediately. Cells were then incubated at 37° C. for 18 h imaged again in the same location. NIH Image J was used to measure the infiltration distance by migrating HUVEC.

The test system of another data set is Wistar rats. The experiment in a line: Subcutaneous implants in rats, histologic and angiogenic evaluation. The class given is in vivo. As to conditions: rat. How it is done:
Female Wisar rats (225-250 g, Charles River Labs, Wilmington, Mass.) were anesthetized using isofluorane (2% for induction and 1% for maintenance), dorsal aspect shaved and sterilely prepped. Hydrogel scaffolds of each SL, SLc, SLac, SLanc or controls: Pura, VEGF (1 μg/mL) were made were loaded in syringes with 22 gage needles. 200 μL subcutaneous injections were injected in 4 different 1.5 inch spaced randomized sites on the dorsal aspect, on either side between the lower thoracic and upper lumber vertebrae. At prescribed timepoints 3 day, 1 week, 2 weeks and […] rats were euthanized using an overdose of isoflurane, CO2 asphyxiation, and bilateral thoracic puncture. The dorsal skin was removed around the entire implant, washed with PBS, and fixed in neutral buffered formalin for 24 hr prior to processing.
Tissue was processed to paraffin blocks, sectioned at 7 μm, deparraffinized and stained for cellular infiltrate using H&E. Cellular infiltrate was determined using immunostaining Mural cell staining associated with angiogenesis was determined by staining for endothelial cells: goat anti-rat CD31+ (Santa Cruz Biotechnology), mouse anti-rat vWF (ABCam); smooth muscle cells: rabbit anti-rat α-SMA+ (Dako); pericytes: mouse anti-rat Nestin+ (Millipore); hematopoitic stem cells: mouse anti-rat CD45 (Santa Cruz Biotechnology), and nucleic DAPI counterstain. Secondary antibodies used were goat anti-rabbit AF 488, donkey anti-goat AF 488, anti-goat AF 488 (Life Technologies), donkey Streptavidin AF 647 (Life Technologies), goat anti-mouse AF 647 and donkey anti-rabbit AF 647. Angiogenesis was quantified by measuring the diameter of vessels (small axis for non-circular vessels), density of vessels (vessels per unit area), presence and thickness of vessel wall (graded from 1 to 3: 1—non-contiguous vessel wall, 2: contiguous thin vessel wall, 3: contiguous multicell thick vessel wall) (n=4 separate sections, n=4 samples).
In modeled diseases such as ligated femoral artery ischemic limb wounds or myocardial infarction several host tissue responses are activated. From secretion of mediators of inflammation such as MCP-1, IL-4, IL-10, SDF-1 and GCSF to growth factors such as VEGF, FGF and EGF extrinsic factors can drastically influence performance of novel materials. As such, prior to use in a disease model, evaluation of scaffolds without concomitant influence from native immune responses was critical. 200 μL subcutaneous implants were randomly made in the dorsal aspect of Wistar rats between the cervical and lumbar vertebrae and 1-2 cm lateral to the midline. 1 w % scaffolds were prepared aseptically by crosslinking 2 w % peptide with an equal volume of HBSS, and injected via 21 gage needle below the skin. At 3 day, 1 week, 2 week and 3 week timepoints, rats were euthanized and scaffolds with surrounding tissue and skin removed. Scaffolds were trimmed, fixed in formalin, embedded in paraffin, sectioned and (immuno-) stained. […] These scaffolds seemed to have completely diffused away or degraded 3 days post-implant. […] Development of blood vessels is dependent on the stimuli the host and scaffold provides. VEGF loaded scaffolds presented 100 ng of recombinant protein (13 nM) within scaffolds. […] These cells of immune, hematopeotic and mesenchymal origin provide a niche for reconstitution of scaffolds. Coupled with recruitment and growth of endothelial feeders from existing vessels, we posit that pericytic cells enhance stability of growing vessels in a paracrine fashion providing adequate support for generation of arterioles.

The target of data set [2] is T2, angiogenic peptide SLanc: K-(SL)3(RG)(SL)3-K-G-KLTWQELYQLKYKGI
T2 chain: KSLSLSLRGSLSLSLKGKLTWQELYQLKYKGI

A value given as a limit tells only on which side of the number the result lay.

“Ac-KSLSLSLRGSLSLSLKGKLTWQELYQLKYKGI-NH2 [SLanc, K-(SL)3(RG)(SL)3-K-G-KLTWQELYQLKYKGI]”: at MMP-2, the “degradation by MMP-2” value is listed as “yields a variety of peptide fragments around the cleavage site”. In addition, the “hMSC adhesion to scaffold” value in data set [1] was “increased adhesion to SLanc over non-functionalized scaffolds”. Moreover, in the data set on THP-1 cells, the “IL-1β secretion by THP-1 cells” value was “significantly lower than LPS activated cells, with levels similar to commercially available scaffolds (Puramatrix™ and Matrigel™)”; the “TNF-α secretion by THP-1 cells” value was “significantly lower than LPS activated cells, with levels similar to commercially available scaffolds (Puramatrix™ and Matrigel™)”. Further, the “migration of HUVEC into scratch wound” value in the data set with HUVEC was “significantly higher proliferation than TCP”. Further, the “cellular infiltration of scaffold (H&E)” value in the data set with Wistar rats (200 μL subcutaneous injection, 1 w % scaffold) is “significantly greater cellular population”. Moreover, in the data set on Wistar rats (subcutaneous implant), the “fibrous capsule around implant” value is on record as “lack of a fibrous capsule”; the “perfusion of neovessels (CD45 / vWF immunostaining)” value is listed as “CD45+ hematopoietic cells were noted within vWF+ vessels suggesting patent perfused mature neovessels”; the “time to development of angiogenic networks” value is on record as no more than 3 days; the “time to resorption of vessels and implants” value is recorded as no more than 3 weeks. Further, in the data set with Wistar rats (subcutaneous implant), the “time to stable vessels” value is no more than 7 days. The “vessels in scaffold at 3 day” value in the data set with Wistar rats (subcutaneous implant, 3 day) is recorded as “small nascent vessels”. The “vessel maturity by immunostaining at 7 day and 2 weeks” value in the data set with Wistar rats (subcutaneous implant, 7 day and 2 weeks) is “mature Nestin+, α-SMA+, and CD31+ cells”. Further, the hemangiomas or hemorrhaging entry with Wistar rats (subcutaneous implant, up to 3 weeks) was “without development of hemangiomas or hemorrhaging”. Further, the “macro-scale vessels visible upon explant” value with Wistar rats (subcutaneous implant, compared to SLc or SLc+VEGF scaffolds) is on record as “visible macro-scale vessels”.

For “K-(SL)3-(RG)-(SL)3-K-(GRGDS) (KSLSLSLRGSLSLSLKGRGDS) [SLac, adhesion and cleavage peptide]”, in the data set with HUVEC, the “migration of HUVEC into scratch wound” value is given as “significantly higher proliferation than TCP”.

B1: MMP-2 (protein)
chain: T1 sequence (P08253 110-660)
With B1, the “enzymatic cleavage of the peptide, MALDI mass spectrometry of fragments” value in data set [2] is given as “In vitro demonstration of physiological degradation of SLanc with the addition of MMP-2, yields a variety of peptide fragments around the cleavage site”.
